According to ChEMBL document CHEMBL5291721, “A preclinical secondary pharmacology resource illuminates target-adverse drug reaction associations of marketed drugs” (Nat Commun, 2023):

What was measured:
[1] = target: T1, Alpha-2A adrenergic receptor (Homo sapiens, UniProt P08913)
T1 sequence (P08913 whole entry): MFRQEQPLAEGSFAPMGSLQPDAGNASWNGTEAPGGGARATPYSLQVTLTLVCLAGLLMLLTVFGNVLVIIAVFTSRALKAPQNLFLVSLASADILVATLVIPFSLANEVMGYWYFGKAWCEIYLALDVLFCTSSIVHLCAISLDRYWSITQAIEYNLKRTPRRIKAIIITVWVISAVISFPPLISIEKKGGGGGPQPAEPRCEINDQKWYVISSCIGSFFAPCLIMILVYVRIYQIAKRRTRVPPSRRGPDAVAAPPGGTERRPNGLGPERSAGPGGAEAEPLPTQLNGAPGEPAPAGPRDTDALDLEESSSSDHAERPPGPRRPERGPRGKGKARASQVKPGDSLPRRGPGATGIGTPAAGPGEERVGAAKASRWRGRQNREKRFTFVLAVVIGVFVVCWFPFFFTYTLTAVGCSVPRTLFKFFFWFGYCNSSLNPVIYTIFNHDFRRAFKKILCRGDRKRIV

[2] = target: D(3) dopamine receptor (Homo sapiens, UniProt P35462)
[3] = target: Prothrombin (Homo sapiens, UniProt P00734); type: functional
[4] = target: T2, Amine oxidase [flavin-containing] A (Homo sapiens, UniProt P21397); type: functional
T2 sequence (P21397 whole entry): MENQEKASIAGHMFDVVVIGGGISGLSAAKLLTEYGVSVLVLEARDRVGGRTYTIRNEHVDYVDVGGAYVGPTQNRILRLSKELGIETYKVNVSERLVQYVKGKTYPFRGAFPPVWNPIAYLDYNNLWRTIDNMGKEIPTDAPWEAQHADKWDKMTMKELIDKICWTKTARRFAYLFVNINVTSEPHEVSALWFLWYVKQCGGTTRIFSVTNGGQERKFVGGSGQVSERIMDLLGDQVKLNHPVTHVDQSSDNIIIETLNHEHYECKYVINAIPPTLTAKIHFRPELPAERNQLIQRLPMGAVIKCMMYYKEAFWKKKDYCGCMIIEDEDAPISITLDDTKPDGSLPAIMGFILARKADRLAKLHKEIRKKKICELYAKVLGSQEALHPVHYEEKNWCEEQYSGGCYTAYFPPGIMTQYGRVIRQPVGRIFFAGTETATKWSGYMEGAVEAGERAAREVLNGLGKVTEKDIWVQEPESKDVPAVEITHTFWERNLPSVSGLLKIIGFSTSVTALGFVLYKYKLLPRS

[5] = target: Mu-type opioid receptor (Homo sapiens, UniProt P35372)
[6] = target: T3, Alpha-1A adrenergic receptor (Homo sapiens, UniProt P35348); type: functional, cell-based
T3 sequence (P35348 whole entry): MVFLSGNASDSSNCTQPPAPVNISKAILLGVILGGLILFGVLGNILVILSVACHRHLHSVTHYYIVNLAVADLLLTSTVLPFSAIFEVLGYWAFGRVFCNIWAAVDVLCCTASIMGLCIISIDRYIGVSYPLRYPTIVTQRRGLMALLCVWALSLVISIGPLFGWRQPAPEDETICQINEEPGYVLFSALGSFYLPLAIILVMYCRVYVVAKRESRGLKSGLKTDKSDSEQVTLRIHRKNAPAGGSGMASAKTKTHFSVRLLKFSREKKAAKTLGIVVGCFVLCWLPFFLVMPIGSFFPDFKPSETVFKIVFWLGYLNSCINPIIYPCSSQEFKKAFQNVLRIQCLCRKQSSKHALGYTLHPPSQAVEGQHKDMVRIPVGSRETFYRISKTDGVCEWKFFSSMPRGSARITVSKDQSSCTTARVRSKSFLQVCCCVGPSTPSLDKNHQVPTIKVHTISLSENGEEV

[7] = target: D(1A) dopamine receptor (Homo sapiens, UniProt P21728)
[8] = target: Sodium-dependent noradrenaline transporter (Homo sapiens, UniProt P23975)
[9] = target: T4, Muscarinic acetylcholine receptor M2 (Homo sapiens, UniProt P08172)
T4 sequence (P08172 whole entry): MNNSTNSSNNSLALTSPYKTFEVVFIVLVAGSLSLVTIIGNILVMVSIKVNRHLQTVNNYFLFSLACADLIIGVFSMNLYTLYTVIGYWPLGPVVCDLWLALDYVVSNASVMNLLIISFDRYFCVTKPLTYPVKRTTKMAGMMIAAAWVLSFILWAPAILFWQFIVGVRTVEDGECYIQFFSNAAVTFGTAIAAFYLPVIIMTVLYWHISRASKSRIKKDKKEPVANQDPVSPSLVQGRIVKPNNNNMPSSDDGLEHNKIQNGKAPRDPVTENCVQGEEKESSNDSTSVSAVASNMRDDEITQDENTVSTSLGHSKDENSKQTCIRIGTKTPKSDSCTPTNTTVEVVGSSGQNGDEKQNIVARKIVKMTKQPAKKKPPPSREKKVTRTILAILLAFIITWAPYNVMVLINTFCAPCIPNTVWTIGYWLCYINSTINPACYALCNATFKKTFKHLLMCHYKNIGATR

[10] = target: Voltage-gated inwardly rectifying potassium channel KCNH2 (Homo sapiens, UniProt Q12809); type: functional; details: read-out: AC50
[11] = target: 3',5'-cyclic-AMP phosphodiesterase 4A (Homo sapiens, UniProt P27815); type: functional
[12] = target: Histamine H3 receptor (Homo sapiens, UniProt Q9Y5N1)
[13] = target: T5, 5-hydroxytryptamine receptor 1A (Homo sapiens, UniProt P08908)
T5 sequence (P08908 whole entry): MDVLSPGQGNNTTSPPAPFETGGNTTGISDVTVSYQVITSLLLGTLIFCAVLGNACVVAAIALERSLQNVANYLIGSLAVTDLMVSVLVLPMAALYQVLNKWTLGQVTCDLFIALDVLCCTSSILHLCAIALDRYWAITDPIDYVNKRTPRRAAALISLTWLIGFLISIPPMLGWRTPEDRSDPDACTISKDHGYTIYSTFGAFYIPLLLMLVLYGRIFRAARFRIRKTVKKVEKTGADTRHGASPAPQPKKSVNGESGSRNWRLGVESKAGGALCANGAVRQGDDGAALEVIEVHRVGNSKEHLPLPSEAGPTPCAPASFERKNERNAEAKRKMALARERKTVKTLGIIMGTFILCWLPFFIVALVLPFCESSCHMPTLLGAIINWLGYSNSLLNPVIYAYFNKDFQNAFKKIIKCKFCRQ

[14] = target: Sodium-dependent dopamine transporter (Homo sapiens, UniProt Q01959)
Also: assay procedure not described here.

Mu-type opioid receptor, sequence (P35372 whole entry): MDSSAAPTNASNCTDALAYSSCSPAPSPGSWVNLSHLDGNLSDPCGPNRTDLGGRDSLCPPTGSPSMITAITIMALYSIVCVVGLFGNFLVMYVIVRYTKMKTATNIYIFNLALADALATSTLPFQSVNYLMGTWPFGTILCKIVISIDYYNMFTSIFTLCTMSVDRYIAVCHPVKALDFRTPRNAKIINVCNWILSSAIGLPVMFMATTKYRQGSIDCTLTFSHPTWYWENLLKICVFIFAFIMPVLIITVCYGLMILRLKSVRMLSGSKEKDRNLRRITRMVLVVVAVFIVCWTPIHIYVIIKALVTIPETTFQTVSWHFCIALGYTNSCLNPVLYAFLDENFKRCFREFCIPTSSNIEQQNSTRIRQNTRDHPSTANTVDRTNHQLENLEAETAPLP
Histamine H3 receptor, sequence (Q9Y5N1 whole entry): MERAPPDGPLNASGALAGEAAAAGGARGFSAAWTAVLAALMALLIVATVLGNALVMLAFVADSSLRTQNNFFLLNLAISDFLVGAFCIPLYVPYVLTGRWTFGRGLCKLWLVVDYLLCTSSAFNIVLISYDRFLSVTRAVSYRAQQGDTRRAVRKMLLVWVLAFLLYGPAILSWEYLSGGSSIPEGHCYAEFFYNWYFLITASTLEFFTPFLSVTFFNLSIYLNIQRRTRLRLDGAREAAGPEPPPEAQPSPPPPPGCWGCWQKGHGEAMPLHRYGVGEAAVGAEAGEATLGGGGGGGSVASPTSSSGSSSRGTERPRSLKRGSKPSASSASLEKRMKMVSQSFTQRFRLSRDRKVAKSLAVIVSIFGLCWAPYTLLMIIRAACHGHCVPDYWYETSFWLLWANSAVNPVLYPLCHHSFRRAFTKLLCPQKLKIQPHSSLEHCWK
Voltage-gated inwardly rectifying potassium channel KCNH2, sequence (Q12809 whole entry): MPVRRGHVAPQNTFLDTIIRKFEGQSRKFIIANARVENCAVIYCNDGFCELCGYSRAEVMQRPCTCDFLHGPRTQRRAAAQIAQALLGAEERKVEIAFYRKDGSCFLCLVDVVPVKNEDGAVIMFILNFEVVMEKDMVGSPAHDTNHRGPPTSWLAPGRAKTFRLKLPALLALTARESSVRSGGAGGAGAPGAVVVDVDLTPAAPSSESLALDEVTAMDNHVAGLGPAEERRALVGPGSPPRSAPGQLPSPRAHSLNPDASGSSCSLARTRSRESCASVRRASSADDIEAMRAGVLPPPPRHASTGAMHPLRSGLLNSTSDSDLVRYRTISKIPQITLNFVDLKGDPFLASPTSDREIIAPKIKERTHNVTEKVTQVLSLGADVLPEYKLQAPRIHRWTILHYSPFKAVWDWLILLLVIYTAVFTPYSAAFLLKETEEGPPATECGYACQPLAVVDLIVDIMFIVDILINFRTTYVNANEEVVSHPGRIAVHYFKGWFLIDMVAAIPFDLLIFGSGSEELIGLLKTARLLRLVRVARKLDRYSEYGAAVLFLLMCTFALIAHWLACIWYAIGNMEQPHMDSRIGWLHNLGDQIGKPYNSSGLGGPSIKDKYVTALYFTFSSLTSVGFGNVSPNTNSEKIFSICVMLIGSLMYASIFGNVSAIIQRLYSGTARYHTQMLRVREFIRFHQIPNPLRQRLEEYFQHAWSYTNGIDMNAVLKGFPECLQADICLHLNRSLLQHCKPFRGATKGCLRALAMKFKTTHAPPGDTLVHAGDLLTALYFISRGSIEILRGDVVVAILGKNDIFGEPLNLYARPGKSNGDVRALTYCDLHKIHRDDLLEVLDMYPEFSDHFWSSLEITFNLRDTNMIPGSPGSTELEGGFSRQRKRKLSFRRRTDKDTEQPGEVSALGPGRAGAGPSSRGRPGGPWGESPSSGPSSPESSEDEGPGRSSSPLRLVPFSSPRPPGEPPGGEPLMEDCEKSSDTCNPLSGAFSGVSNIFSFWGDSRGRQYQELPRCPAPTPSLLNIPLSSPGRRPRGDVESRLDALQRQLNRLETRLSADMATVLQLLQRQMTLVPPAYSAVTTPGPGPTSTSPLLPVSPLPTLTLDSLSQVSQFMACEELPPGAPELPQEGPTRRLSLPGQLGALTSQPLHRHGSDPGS
D(1A) dopamine receptor, sequence (P21728 whole entry): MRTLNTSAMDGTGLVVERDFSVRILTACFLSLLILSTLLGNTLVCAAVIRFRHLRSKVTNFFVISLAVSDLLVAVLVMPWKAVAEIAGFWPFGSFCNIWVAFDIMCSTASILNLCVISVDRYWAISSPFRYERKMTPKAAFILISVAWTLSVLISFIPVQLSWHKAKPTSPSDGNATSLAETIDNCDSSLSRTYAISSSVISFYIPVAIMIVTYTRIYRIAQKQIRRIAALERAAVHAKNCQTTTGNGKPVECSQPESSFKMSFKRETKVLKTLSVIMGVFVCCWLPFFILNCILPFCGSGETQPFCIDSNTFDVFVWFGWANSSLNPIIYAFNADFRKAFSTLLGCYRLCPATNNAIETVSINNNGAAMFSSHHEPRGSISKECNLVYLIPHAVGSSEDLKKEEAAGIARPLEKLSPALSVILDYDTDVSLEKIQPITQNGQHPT
3',5'-cyclic-AMP phosphodiesterase 4A, sequence (P27815 whole entry): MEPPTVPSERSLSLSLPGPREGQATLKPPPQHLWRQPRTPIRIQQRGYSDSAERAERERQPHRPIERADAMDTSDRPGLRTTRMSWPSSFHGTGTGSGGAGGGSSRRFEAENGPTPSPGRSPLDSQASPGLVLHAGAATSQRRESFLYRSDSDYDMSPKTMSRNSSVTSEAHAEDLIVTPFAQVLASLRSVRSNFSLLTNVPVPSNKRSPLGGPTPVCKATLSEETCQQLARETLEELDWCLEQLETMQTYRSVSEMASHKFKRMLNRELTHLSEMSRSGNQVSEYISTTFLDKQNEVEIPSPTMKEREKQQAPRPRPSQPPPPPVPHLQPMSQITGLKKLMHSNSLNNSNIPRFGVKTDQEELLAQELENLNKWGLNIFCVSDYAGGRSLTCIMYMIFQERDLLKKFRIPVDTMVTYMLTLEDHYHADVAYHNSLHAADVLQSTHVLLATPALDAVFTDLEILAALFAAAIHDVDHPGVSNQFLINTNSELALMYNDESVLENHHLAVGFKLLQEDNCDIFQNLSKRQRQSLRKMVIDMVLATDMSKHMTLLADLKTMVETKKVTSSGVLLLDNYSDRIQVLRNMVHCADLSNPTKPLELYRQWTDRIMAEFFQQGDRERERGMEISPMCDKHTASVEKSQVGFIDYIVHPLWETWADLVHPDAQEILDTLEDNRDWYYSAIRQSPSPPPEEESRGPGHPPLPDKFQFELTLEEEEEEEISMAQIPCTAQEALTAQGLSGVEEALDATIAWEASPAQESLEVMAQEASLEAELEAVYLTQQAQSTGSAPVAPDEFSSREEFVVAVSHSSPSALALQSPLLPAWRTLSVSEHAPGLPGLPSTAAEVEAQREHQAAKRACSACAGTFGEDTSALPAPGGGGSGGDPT
Sodium-dependent noradrenaline transporter, sequence (P23975 whole entry): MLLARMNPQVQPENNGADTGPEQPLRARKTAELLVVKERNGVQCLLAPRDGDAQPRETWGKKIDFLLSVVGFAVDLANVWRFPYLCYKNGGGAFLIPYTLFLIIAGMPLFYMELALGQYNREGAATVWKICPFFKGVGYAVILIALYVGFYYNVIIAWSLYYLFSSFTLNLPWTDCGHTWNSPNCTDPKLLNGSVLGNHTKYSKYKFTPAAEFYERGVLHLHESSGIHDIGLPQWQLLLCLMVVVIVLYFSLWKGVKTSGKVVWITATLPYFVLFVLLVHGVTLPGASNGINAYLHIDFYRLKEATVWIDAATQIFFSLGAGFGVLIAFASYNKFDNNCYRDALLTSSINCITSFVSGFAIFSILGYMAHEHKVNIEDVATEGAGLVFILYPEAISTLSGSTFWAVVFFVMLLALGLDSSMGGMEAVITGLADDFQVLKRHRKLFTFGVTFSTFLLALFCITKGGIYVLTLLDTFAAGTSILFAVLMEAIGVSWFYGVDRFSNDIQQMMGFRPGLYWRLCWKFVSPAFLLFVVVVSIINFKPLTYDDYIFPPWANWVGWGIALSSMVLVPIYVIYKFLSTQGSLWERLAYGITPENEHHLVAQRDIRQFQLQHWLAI
Sodium-dependent dopamine transporter, sequence (Q01959 whole entry): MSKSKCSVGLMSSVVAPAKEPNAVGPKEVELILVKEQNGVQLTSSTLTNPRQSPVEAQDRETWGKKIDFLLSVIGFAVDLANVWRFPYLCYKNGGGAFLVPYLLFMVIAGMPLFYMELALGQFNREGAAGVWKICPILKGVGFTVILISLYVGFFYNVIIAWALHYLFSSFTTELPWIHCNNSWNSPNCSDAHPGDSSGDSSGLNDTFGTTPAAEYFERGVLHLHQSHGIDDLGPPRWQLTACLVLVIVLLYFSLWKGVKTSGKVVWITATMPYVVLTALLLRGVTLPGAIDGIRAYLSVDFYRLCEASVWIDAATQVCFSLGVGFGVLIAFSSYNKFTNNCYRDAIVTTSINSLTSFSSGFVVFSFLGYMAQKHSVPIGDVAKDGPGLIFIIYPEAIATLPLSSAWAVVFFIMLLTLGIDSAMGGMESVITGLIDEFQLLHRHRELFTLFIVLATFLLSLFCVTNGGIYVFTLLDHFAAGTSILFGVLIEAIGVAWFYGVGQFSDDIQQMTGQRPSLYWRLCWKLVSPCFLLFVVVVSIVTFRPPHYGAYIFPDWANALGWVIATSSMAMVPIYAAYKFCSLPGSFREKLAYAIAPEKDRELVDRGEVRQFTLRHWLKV
D(3) dopamine receptor, sequence (P35462 whole entry): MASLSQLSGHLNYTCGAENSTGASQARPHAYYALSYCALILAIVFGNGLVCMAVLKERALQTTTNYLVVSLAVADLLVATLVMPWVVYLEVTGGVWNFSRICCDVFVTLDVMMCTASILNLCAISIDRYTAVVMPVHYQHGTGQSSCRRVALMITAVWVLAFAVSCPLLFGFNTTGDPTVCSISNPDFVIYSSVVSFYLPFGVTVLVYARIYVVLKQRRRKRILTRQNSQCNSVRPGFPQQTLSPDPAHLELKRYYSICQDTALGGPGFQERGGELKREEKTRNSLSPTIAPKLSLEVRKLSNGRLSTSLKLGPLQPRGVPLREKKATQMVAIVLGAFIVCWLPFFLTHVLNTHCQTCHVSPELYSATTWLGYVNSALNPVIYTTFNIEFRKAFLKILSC

C[C@H]1O[C@@H](O[C@H]2[C@@H](O)C[C@H](O[C@H]3[C@@H](O)C[C@H](O[C@H]4CC[C@@]5(C)[C@H](CC[C@@H]6[C@@H]5CC[C@]5(C)[C@@H](C7=CC(=O)OC7)CC[C@]65O)C4)O[C@@H]3C)O[C@@H]2C)C[C@H](O)[C@@H]1O [DIGITOXIN]
AC50 [1]: > 30 µM
AC50 [2]: > 30 µM
AC50 [3]: > 30 µM
AC50 [4]: > 30 µM
AC50 [5]: > 30 µM
AC50 [6]: > 30 µM
AC50 [7]: > 30 µM
AC50 [8]: > 30 µM
AC50 [9]: > 30 µM
AC50 [10]: > 30 µM
AC50 [11]: > 30 µM
AC50 [12]: > 30 µM
AC50 [13]: > 30 µM
AC50 [14]: > 30 µM

OC(CCCN1CCCCC1)(c1ccccc1)c1ccccc1 [DIPHENIDOL]
AC50 [1]: > 30 µM
AC50 [2]: 2.15 µM
AC50 [3]: > 30 µM
AC50 [4]: > 30 µM
AC50 [5]: 25.2 µM
AC50 [6]: > 30 µM
AC50 [7]: 12.5 µM
AC50 [8]: > 30 µM
AC50 [9]: 0.944 µM
AC50 [10]: 16 µM
AC50 [11]: > 30 µM
AC50 [12]: > 30 µM
AC50 [13]: 6.87 µM
AC50 [14]: > 30 µM

CCn1cc(C(=O)O)c(=O)c2cc(F)c(N3CCNCC3)nc21 [ENOXACIN]
AC50 [1]: > 30 µM
AC50 [2]: > 30 µM
AC50 [3]: > 30 µM
AC50 [4]: > 30 µM
AC50 [5]: > 30 µM
AC50 [6]: > 30 µM
AC50 [7]: > 30 µM
AC50 [8]: > 30 µM
AC50 [9]: > 30 µM
AC50 [10]: > 30 µM
AC50 [11]: > 30 µM
AC50 [12]: > 30 µM
AC50 [13]: > 30 µM
AC50 [14]: > 30 µM

C[C@@H](O)[C@H]1C(=O)N2C(C(=O)O)=C([C@H]3CCCO3)S[C@H]12 [FAROPENEM]
AC50 [1]: > 30 µM
AC50 [2]: > 30 µM
AC50 [3]: > 30 µM
AC50 [4]: > 30 µM
AC50 [5]: > 30 µM
AC50 [6]: > 30 µM
AC50 [7]: > 30 µM
AC50 [8]: > 30 µM
AC50 [9]: > 30 µM
AC50 [10]: > 30 µM
AC50 [11]: > 30 µM
AC50 [12]: > 30 µM
AC50 [13]: > 30 µM
AC50 [14]: > 30 µM

CCOC(=O)c1ccc(OC(=O)CCCCCNC(=N)N)cc1 [GABEXATE]
AC50 [1]: > 30 µM
AC50 [2]: > 30 µM
AC50 [3]: 0.17 µM
AC50 [4]: > 30 µM
AC50 [5]: > 30 µM
AC50 [6]: > 30 µM
AC50 [7]: > 30 µM
AC50 [8]: 9.03 µM
AC50 [9]: 1.49 µM
AC50 [10]: 25 µM
AC50 [11]: > 30 µM
AC50 [12]: > 30 µM
AC50 [13]: > 30 µM
AC50 [14]: 14.8 µM

CCCCC/C=C\C/C=C\C/C=C\CCCCC(=O)O [GAMOLENIC ACID]
AC50 [1]: > 30 µM
AC50 [2]: > 30 µM
AC50 [3]: > 30 µM
AC50 [4]: > 30 µM
AC50 [5]: > 30 µM
AC50 [6]: > 30 µM
AC50 [7]: > 30 µM
AC50 [8]: > 30 µM
AC50 [9]: > 30 µM
AC50 [10]: > 30 µM
AC50 [11]: > 30 µM
AC50 [12]: > 30 µM
AC50 [13]: > 30 µM
AC50 [14]: > 30 µM

COCCOc1cnc(NS(=O)(=O)c2ccccc2)nc1 [GLYMIDINE]
AC50 [1]: > 30 µM
AC50 [2]: > 30 µM
AC50 [3]: > 30 µM
AC50 [4]: > 30 µM
AC50 [5]: > 30 µM
AC50 [6]: > 30 µM
AC50 [7]: > 30 µM
AC50 [8]: > 30 µM
AC50 [9]: > 30 µM
AC50 [10]: > 30 µM
AC50 [11]: > 30 µM
AC50 [12]: > 30 µM
AC50 [13]: > 30 µM
AC50 [14]: > 30 µM

CCC(=O)O[C@]1(C(=O)COC(C)=O)CC[C@H]2[C@@H]3CCC4=CC(=O)CC[C@]4(C)[C@H]3[C@@H](O)C[C@@]21C [HYDROCORTISONE ACEPONATE]
AC50 [1]: > 30 µM
AC50 [2]: > 30 µM
AC50 [3]: > 30 µM
AC50 [4]: > 30 µM
AC50 [5]: > 30 µM
AC50 [6]: > 30 µM
AC50 [7]: > 30 µM
AC50 [8]: > 30 µM
AC50 [9]: > 30 µM
AC50 [10]: > 30 µM
AC50 [11]: > 30 µM
AC50 [12]: > 30 µM
AC50 [13]: > 30 µM
AC50 [14]: > 30 µM
